Source: the NIST ThermoML archive (doi:10.1007/s10765-015-1980-6)

Assay: xn = mol fraction of the nth substance listed
Settings: 101 kPa, Liquid; for speed of sound: Frequency=2 MHz; for mass density: Pycnometric method

OCCCCO [1,4-butanediol] + OCCOCCO
speed of sound [m/s], Linear variable-path acoustic interferometer
Settings | x2 = 0 | x2 = 0.108 | x2 = 0.1977 | x2 = 0.2897 | x2 = 0.4096 | x2 = 0.509 | x2 = 0.6116 | x2 = 0.6912 | x2 = 0.7992 | x2 = 0.8838
298.15 K | 1601.6 | 1568.1 | 1549.9 | 1543.5 | 1546.2 | 1552.2 | 1558.9 | 1564.5 | 1571.3 | 1575.3
303.15 K | 1589.3 | 1558.9 | 1542 | 1535.7 | 1538.6 | 1544 | 1550.2 | 1555.3 | 1561.2 | 1564.6
308.15 K | 1577.7 | 1549.8 | 1534.4 | 1528.2 | 1531.1 | 1536.3 | 1541.8 | 1546.4 | 1551.7 | 1554.7
313.15 K | 1565.6 | 1540.6 | 1526.6 | 1520.3 | 1523.2 | 1528.1 | 1533.1 | 1537.2 | 1541.7 | 1544.4

mass density [kg/m3]
Settings | x2 = 0 | x2 = 0.108 | x2 = 0.1977 | x2 = 0.2897 | x2 = 0.4096 | x2 = 0.509 | x2 = 0.6116 | x2 = 0.6912 | x2 = 0.7992 | x2 = 0.8838
298.15 K | 1012.6 | 1019.9 | 1026.6 | 1035 | 1047 | 1057.6 | 1069.4 | 1078.5 | 1090.6 | 1100
303.15 K | 1009.6 | 1017.1 | 1024 | 1032.3 | 1044.3 | 1054.9 | 1066.5 | 1075.6 | 1087.6 | 1096.8
308.15 K | 1006.7 | 1014.4 | 1021.4 | 1029.6 | 1041.6 | 1052.1 | 1063.7 | 1072.6 | 1084.5 | 1093.6
313.15 K | 1003.7 | 1011.7 | 1018.7 | 1027 | 1038.9 | 1049.4 | 1060.8 | 1069.6 | 1081.3 | 1090.3

OCCOCCO [diethylene glycol] + CCCCO
Settings | mass density, 298.15 K [kg/m3] | mass density, 303.15 K [kg/m3] | mass density, 308.15 K [kg/m3] | mass density, 313.15 K [kg/m3] | speed of sound, 298.15 K [m/s] | speed of sound, 303.15 K [m/s] | speed of sound, 308.15 K [m/s] | speed of sound, 313.15 K [m/s]
x1 = 0.1095 | 840.7 | 837 | 833.4 | 829.7 | 1265.9 | 1249.5 | 1232.3 | 1215.9
x1 = 0.2096 | 872.6 | 868.9 | 865.3 | 861.6 | 1294 | 1277.8 | 1261.3 | 1245.8
x1 = 0.2955 | 899.7 | 896.1 | 892.4 | 888.8 | 1320.9 | 1305.3 | 1289 | 1273.5
x1 = 0.3874 | 928.5 | 924.9 | 921.2 | 917.6 | 1350.8 | 1335.3 | 1318.7 | 1303.2
x1 = 0.5122 | 967.1 | 963.5 | 959.9 | 956.3 | 1392.3 | 1377.7 | 1361.9 | 1347.4
x1 = 0.592 | 991.5 | 988 | 984.4 | 980.9 | 1419.3 | 1406 | 1391.6 | 1378
x1 = 0.677 | 1017.3 | 1013.7 | 1010.2 | 1006.7 | 1448.9 | 1436.8 | 1424.2 | 1411.6
x1 = 0.7986 | 1053.5 | 1050.1 | 1046.6 | 1043.1 | 1492.7 | 1481.1 | 1470.1 | 1459.2
x1 = 0.896 | 1082.3 | 1078.8 | 1075.4 | 1072 | 1531.3 | 1520.6 | 1510 | 1500
x1 = 1 | 1112.7 | 1109.3 | 1105.9 | 1102.5 | 1579.3 | 1568 | 1557.3 | 1546.1

OCCOCCO [diethylene glycol] + CCC(C)O
speed of sound [m/s], Linear variable-path acoustic interferometer
Settings | x1 = 0.1097 | x1 = 0.2096 | x1 = 0.2951 | x1 = 0.3876 | x1 = 0.512 | x1 = 0.592 | x1 = 0.6771 | x1 = 0.7984 | x1 = 0.8962 | x1 = 1
298.15 K | 1243.1 | 1273.6 | 1300.5 | 1330.6 | 1372 | 1400 | 1431.4 | 1480.5 | 1525.1 | 1579.3
303.15 K | 1225.2 | 1256.7 | 1283.5 | 1313.5 | 1356.2 | 1386.1 | 1418.2 | 1468.2 | 1513.4 | 1568
308.15 K | 1207.6 | 1239.8 | 1266 | 1296 | 1339.4 | 1370.1 | 1403 | 1454.1 | 1501.7 | 1557.3
313.15 K | 1190.1 | 1222.7 | 1249.1 | 1279.3 | 1323.4 | 1354.9 | 1389.2 | 1441.2 | 1490 | 1546.1

mass density [kg/m3]
Settings | x1 = 0.1097 | x1 = 0.2096 | x1 = 0.2951 | x1 = 0.3876 | x1 = 0.512 | x1 = 0.592 | x1 = 0.6771 | x1 = 0.7984 | x1 = 0.8962 | x1 = 1
298.15 K | 838.7 | 871.6 | 899.5 | 929.3 | 968.6 | 993.4 | 1019.2 | 1055.1 | 1083.2 | 1112.7
303.15 K | 834.7 | 867.7 | 895.7 | 925.5 | 964.9 | 989.8 | 1015.8 | 1051.8 | 1079.9 | 1109.3
308.15 K | 830.7 | 863.9 | 891.9 | 921.8 | 961.2 | 986.2 | 1012.3 | 1048.4 | 1076.6 | 1105.9
313.15 K | 826.8 | 860.1 | 888.1 | 918 | 957.6 | 982.6 | 1008.9 | 1045.1 | 1073.3 | 1102.5
